Format in all cases: in vivo
One assay relates to piemarker. Description: Determination of herbicidal activity, post-emergence stem and leaf spray, piemarker. The conditions noted are these: for control effects on piemarker / pest or weed control at 150 g/ha: 150 g a.i./hm^2, after emergence, visual 0-100%; for Herbicidal activity for Piemarker, control effect %: Table 4 parallel comparison; for pest or weed control at 150 g/ha: post-emergence, read-out: control effects on piemarker. On the procedure:
(§1) Seeds of broadleaf weeds (zinnia and piemarker) or grassy weeds (green bristlegrass and barnyard grass) were respectively sown in a paper cup having a diameter of 7 cm and containing nutrient soil; after sowing, the seeds were covered with 1 cm of soil; the soil was pressed and watered, and then the seeds were cultivated in a greenhouse according to a conventional method; and stems and leaves were sprayed after 2-3 leaf stage of the weeds.
(§2) After the original medicinal acetone was dissolved, the test requires to use 1‰ of Tween 80 to stand in running water to prepare the solution to be tested with a required concentration. According to the design dose of the test, spray treatment was carried out on a track-type crop sprayer (designed and produced by British Engineer Research Ltd.) (spray pressure is 1.95 kg/cm^2, spray volume is 500 L/hm^2 and track speed is 1.48 km/h). The test was repeated for three times. The test material was treated and then placed in an operation hall. The medicinal liquid was naturally dried in the shade, and then was placed in a greenhouse and managed according to the conventional method. The response of the weeds to the drug was observed and recorded. After treatment, the control effects of the test drug on the weeds were visually inspected regularly, expressed by 0-100%. “0” represents no control effect and “100%” represents complete killing.

A further assay deals with zinnia. Kind of assay: Determination of herbicidal activity, post-emergence stem and leaf spray, zinnia. The conditions noted are these: for control effects on zinnia: 150 g a.i./hm^2, after emergence, visual 0-100%; for Herbicidal activity for Zinnia, control effect %: Table 3 parallel comparison. On the procedure: as §1, §2
The subject of the next assay is green bristlegrass. Description: Determination of herbicidal activity, post-emergence stem and leaf spray, green bristlegrass. To be noted: Table 5 parallel comparison. On the procedure:
as §1, §2

Setting [1] is: 2.34 g a.i./hm^2, after emergence.
[2] abbreviates: 9.375 g a.i./hm^2, after emergence.
[3] abbreviates: 37.5 g a.i./hm^2, after emergence.

Molecules are shown by their SMILES.

Experimental findings from patent US12577216B2, “Triazine benzoate compound and application thereof” (SHENYANG SINOCHEM AGROCHEMICALS R&D CO., LTD., priority 2020, dated 2026) are described below.

Regarding `CC(OC(=O)c1cc(-n2c(=O)n(C)c(=S)n(C)c2=O)c(F)cc1Cl)C(=O)OCCCCCl` (stereo not drawn) [Compound 273], in the assay on piemarker, the “control effects on piemarker” value amounted to 100%. In addition, the “Herbicidal activity for Piemarker, control effect %” value in the assay on piemarker (setting [1]) stood at 90%; in the assay on piemarker (setting [2]) it was 100%. In addition, the “control effects on zinnia” value in the assay on zinnia was 100%.
`CCOC(=O)C(OC(=O)c1cc(-n2c(=O)n(C)c(=S)n(C)c2=O)c(F)cc1Cl)C(C)C` (stereo not drawn) [Compound 305]: the “control effects on piemarker” value in the assay with piemarker is 100%. Also, in the assay on zinnia, the “control effects on zinnia” value is 100%.
Turning to `CCC(OC(=O)c1cc(-n2c(=O)n(C)c(=S)n(C)c2=O)c(F)cc1Cl)C(=O)OCCF` (stereo not drawn) [Compound 300, 2-chloro-4-fluoro-5-(3,5-dimethyl-2,6-dioxo-4-thio-1,3,5-triazine-1-yl)benzoic acid (1-(2-fluoroethoxycarbonyl))propyl ester], the pest or weed control at 150 g/ha in the assay with piemarker came to 100%. In the assay on zinnia, the “control effects on zinnia” value is 100%.
With `CC(OC(=O)c1cc(-n2c(=O)n(C)c(=S)n(C)c2=O)c(F)cc1Cl)C(=O)OCC=C(Cl)Cl` (stereo not drawn) [Compound 283], the “Herbicidal activity for Green Bristlegrass, control effect %” value with green bristlegrass (setting [2]) turned out to be 50%; with green bristlegrass (setting [3]), 85%. In the assay with piemarker, the “control effects on piemarker” value is reported as 100%. Also, the “control effects on zinnia” value in the assay with zinnia is 100%. For the same compound, the “Herbicidal activity for Zinnia, control effect %” value in the assay with zinnia (setting [1]) and in the assay on zinnia (setting [2]) was 100% throughout.
With `CCC(OC(=O)c1cc(-n2c(=O)n(C)c(=S)n(C)c2=O)c(F)cc1Cl)C(=O)OCCCCCl` (stereo not drawn) [Compound 303], the “control effects on piemarker” value in the assay with piemarker amounted to 100%. Besides, the “control effects on zinnia” value in the assay with zinnia came out at 100%. Also, the “Herbicidal activity for Zinnia, control effect %” value is reported as 85% in the assay on zinnia (setting [1]) and 100% in the assay on zinnia (setting [2]).
`Cn1c(=S)n(C)c(=O)n(-c2cc(C(=O)OCC(=O)OCC3COC(C)(C)O3)c(Cl)cc2F)c1=O` (stereo not drawn) [Compound 247]: the “Herbicidal activity for Green Bristlegrass, control effect %” value in the assay on green bristlegrass (setting [2]) turned out to be 60%; with green bristlegrass (setting [3]), 90%. Besides, in the assay with piemarker, the “control effects on piemarker” value amounted to 100%. Besides, the “control effects on zinnia” value with zinnia amounted to 100%. In addition, the “Herbicidal activity for Zinnia, control effect %” value in the assay with zinnia (setting [1]) and with zinnia (setting [2]) was 100% each time.
Regarding `CC(OC(=O)c1cc(-n2c(=O)n(C)c(=S)n(C)c2=O)c(F)cc1Cl)C(=O)OCCCCl` (racemic) [Compound 268], the “control effects on piemarker” value with piemarker amounted to 100%. For the same compound, the “control effects on zinnia” value with zinnia is listed as 100%. Also, the “Herbicidal activity for Zinnia, control effect %” value was 85% with zinnia (setting [1]) and 100% with zinnia (setting [2]).
For `C[C@@H](OC(=O)c1cc(-n2c(=O)n(C)c(=S)n(C)c2=O)c(F)cc1Cl)C(=O)OCCCCl` [Compound 269], the “control effects on piemarker” value with piemarker is 100%. The “control effects on zinnia” value in the assay on zinnia worked out at 100%. In addition, the “Herbicidal activity for Zinnia, control effect %” value is listed as 80% in the assay with zinnia (setting [1]) and 95% in the assay with zinnia (setting [2]).
As for `CC(OC(=O)c1cc(-n2c(=O)n(C)c(=S)n(C)c2=O)ccc1Cl)C(=O)OCC1CC1` (stereo not drawn) [Compound 160], in the assay on piemarker, the “control effects on piemarker” value came out at 100%.
For the compound `CC(OC(=O)c1cc(-n2c(=O)n(C)c(=S)n(C)c2=O)c(F)cc1Cl)C(=O)OCC1COC(C)(C)O1` (stereo not drawn) [Compound 297], the “control effects on piemarker” value with piemarker is given as 100%. The “Herbicidal activity for Piemarker, control effect %” value in the assay with piemarker (setting [1]) was found to be 85%; in the assay on piemarker (setting [2]), 100%. For the same compound, in the assay on zinnia, the “control effects on zinnia” value worked out at 100%. Moreover, the “Herbicidal activity for Zinnia, control effect %” value with zinnia (setting [1]) amounted to 95%; in the assay with zinnia (setting [2]), 100%.
For `CC(OC(=O)c1cc(-n2c(=O)n(C)c(=S)n(C)c2=O)c(F)cc1Cl)C(=O)OCc1ccccc1` (stereo not drawn) [Compound 289], in the assay with piemarker, the “control effects on piemarker” value is given as 100%. In addition, in the assay with zinnia, the “control effects on zinnia” value is given as 100%.
With `CCC(OC(=O)c1cc(-n2c(=O)n(C)c(=S)n(C)c2=O)c(F)cc1Cl)C(=O)OCCCCl` (stereo not drawn) [Compound 302], the “control effects on piemarker” value in the assay with piemarker came out at 100%. Further, the “control effects on zinnia” value in the assay with zinnia is 100%. In addition, the entries for the “Herbicidal activity for Zinnia, control effect %” value in the assay with zinnia (setting [1]) and in the assay with zinnia (setting [2]) were 90% and 100%, respectively.
Regarding `C[C@@H](OC(=O)c1cc(-n2c(=O)n(C)c(=S)n(C)c2=O)c(F)cc1Cl)C(=O)OCCCl` [Compound 266], the pest or weed control at 150 g/ha in the assay on piemarker amounted to 100%. Also, in the assay on zinnia, the “control effects on zinnia” value was determined as 100%. Moreover, the “Herbicidal activity for Zinnia, control effect %” value came out at 85% in the assay with zinnia (setting [1]) and 100% in the assay with zinnia (setting [2]).
In the case of `CC(OC(=O)c1cc(-n2c(=O)n(C)c(=S)n(C)c2=O)c(F)cc1Cl)C(=O)OCCCl` (racemic) [Compound 265], the “control effects on piemarker” value in the assay with piemarker was found to be 100%. For the same compound, the “Herbicidal activity for Piemarker, control effect %” value in the assay with piemarker (setting [1]) worked out at 90%; in the assay with piemarker (setting [2]), 100%. For the same compound, the “control effects on zinnia” value with zinnia is recorded as 100%.
For the compound `CC(OC(=O)c1cc(-n2c(=O)n(C)c(=S)n(C)c2=O)c(F)cc1Cl)C(=O)OCC1CO1` (stereo not drawn) [Compound 295], the “control effects on piemarker” value with piemarker is on record as 100%. Further, the “control effects on zinnia” value with zinnia was 100%. Further, the “Herbicidal activity for Zinnia, control effect %” value in the assay with zinnia (setting [1]) worked out at 90%; in the assay on zinnia (setting [2]), 100%.
On to `C[C@H](OC(=O)c1cc(-n2c(=O)n(C)c(=S)n(C)c2=O)c(F)cc1Cl)C(=O)OCCCCl` [Compound 270], for which the “control effects on piemarker” value with piemarker is reported as 100%. Also, the “Herbicidal activity for Piemarker, control effect %” value in the assay with piemarker (setting [1]) is reported as 85%; in the assay on piemarker (setting [2]), 100%. For the same compound, in the assay with zinnia, the “control effects on zinnia” value was 100%. For the same compound, the “Herbicidal activity for Zinnia, control effect %” value in the assay on zinnia (setting [1]) was 90%; in the assay with zinnia (setting [2]) it was 100%.
Turning to `CCOC(=O)C(CC)OC(=O)c1cc(-n2c(=O)n(C)c(=S)n(C)c2=O)c(F)cc1Cl` (stereo not drawn) [Compound 299], the “Herbicidal activity for Piemarker, control effect %” value in the assay with piemarker (setting [1]) is listed as 85%; in the assay on piemarker (setting [2]), 100%. Moreover, the “control effects on zinnia” value in the assay on zinnia is given as 100%.
With `CCOC(=O)C(C)(C)OC(=O)c1cc(-n2c(=O)n(C)c(=S)n(C)c2=O)c(F)cc1Cl` [Compound 306, 2-chloro-4-fluoro-5-(3,5-dimethyl-2,6-dioxo-4-thio-1,3,5-triazine-1-yl)benzoic acid (1-methyl-1-ethoxycarbonyl)ethyl ester], the pest or weed control at 150 g/ha in the assay with piemarker was found to be 100%.
On to `CC(OC(=O)c1cc(-n2c(=O)n(C)c(=S)n(C)c2=O)c(F)cc1Cl)C(=O)OCCF` (stereo not drawn) [Compound 264], for which the “control effects on piemarker” value in the assay with piemarker was found to be 100%. In the assay with zinnia, the “control effects on zinnia” value is listed as 100%. For the same compound, the “Herbicidal activity for Zinnia, control effect %” value was 90% in the assay on zinnia (setting [1]) and 100% in the assay with zinnia (setting [2]).
Regarding `CC(OC(=O)c1cc(-n2c(=O)n(C)c(=S)n(C)c2=O)c(F)cc1Cl)C(=O)OCC1CCCO1` (stereo not drawn) [Compound 296], the “control effects on piemarker” value with piemarker amounted to 100%. Besides, the “control effects on zinnia” value with zinnia is reported as 100%. Moreover, the “Herbicidal activity for Zinnia, control effect %” value in the assay with zinnia (setting [1]) is 90%; in the assay with zinnia (setting [2]), 100%.
Turning to `CC(OC(=O)c1cc(-n2c(=O)n(C)c(=S)n(C)c2=O)c(F)cc1Cl)C(=O)OCC1CCCC1` (stereo not drawn) [Compound 293], the “control effects on piemarker” value in the assay on piemarker was 100%. Moreover, the results for the “Herbicidal activity for Piemarker, control effect %” value with piemarker (setting [1]) and in the assay with piemarker (setting [2]) were 85% and 100%, respectively. In addition, the “control effects on zinnia” value in the assay with zinnia was found to be 100%. Also, the “Herbicidal activity for Zinnia, control effect %” value with zinnia (setting [1]) was determined as 90%; in the assay on zinnia (setting [2]), 100%.
With `CC(OC(=O)c1cc(-n2c(=O)n(C)c(=S)n(C)c2=O)c(F)cc1Cl)C(=O)OC/C=C/c1ccccc1` (stereo not drawn) [Compound 290], the “control effects on piemarker” value in the assay on piemarker stood at 100%. In addition, the “control effects on zinnia” value with zinnia is recorded as 100%.
As to `CCC(OC(=O)c1cc(-n2c(=O)n(C)c(=S)n(C)c2=O)c(F)cc1Cl)C(=O)OCCCl` (stereo not drawn) [Compound 301], the “control effects on piemarker” value in the assay on piemarker was 100%. For the same compound, in the assay on zinnia, the “control effects on zinnia” value was 100%.
As to `C[C@H](OC(=O)c1cc(-n2c(=O)n(C)c(=S)n(C)c2=O)c(F)cc1Cl)C(=O)OCCCl` [Compound 267], the “Herbicidal activity for Piemarker, control effect %” value with piemarker (setting [1]) was 90%; in the assay on piemarker (setting [2]) it was 100%. The pest or weed control at 150 g/ha in the assay with piemarker came out at 100%. The “control effects on zinnia” value with zinnia amounted to 100%. Further, the “Herbicidal activity for Zinnia, control effect %” value in the assay with zinnia (setting [1]) was found to be 85%; in the assay with zinnia (setting [2]) it was 100%.
Turning to `CC(OC(=O)c1cc(-n2c(=O)n(C)c(=S)n(C)c2=O)ccc1Cl)C(=O)OCCCl` (racemic) [Compound 138], the “control effects on piemarker” value with piemarker worked out at 100%.
Consider `CCC(OC(=O)c1cc(-n2c(=O)n(C)c(=S)n(C)c2=O)c(F)cc1Cl)C(=O)OCC1CC1` (stereo not drawn) [Compound 304], for which the “control effects on piemarker” value with piemarker is on record as 100%. Besides, the “control effects on zinnia” value in the assay with zinnia was found to be 100%. Moreover, the “Herbicidal activity for Zinnia, control effect %” value is 80% with zinnia (setting [1]) and 100% in the assay with zinnia (setting [2]).
